# Results from patent publication US20230079819A1, “COMPOUNDS AND USES THEREOF” (Foghorn Therapeutics Inc., priority 2019, published 2023).
# Tests used:
# [1] = molecular target: T1, BRG-1 (Homo sapiens, UniProt P51532); assay: ATPase catalytic activity of BRG-1, ADP-Glo in vitro biochemical assay; conditions: ATPase catalytic activity, 30 nM BRG-1, 400 μM ATP, read-out: BRG1 IP50
# T1 construct: made in house; host or cells: High Five insect cells
# [2] = molecular target: T2, BRM (Homo sapiens, UniProt P51531); assay: ATPase catalytic activity of BRM, ADP-Glo in vitro biochemical assay; conditions: ATPase catalytic activity, 30 nM BRM, 400 μM ATP, read-out: BRM IP50
# T2 construct: made in house; host or cells: High Five insect cells
# T2 sequence (P51531 whole entry): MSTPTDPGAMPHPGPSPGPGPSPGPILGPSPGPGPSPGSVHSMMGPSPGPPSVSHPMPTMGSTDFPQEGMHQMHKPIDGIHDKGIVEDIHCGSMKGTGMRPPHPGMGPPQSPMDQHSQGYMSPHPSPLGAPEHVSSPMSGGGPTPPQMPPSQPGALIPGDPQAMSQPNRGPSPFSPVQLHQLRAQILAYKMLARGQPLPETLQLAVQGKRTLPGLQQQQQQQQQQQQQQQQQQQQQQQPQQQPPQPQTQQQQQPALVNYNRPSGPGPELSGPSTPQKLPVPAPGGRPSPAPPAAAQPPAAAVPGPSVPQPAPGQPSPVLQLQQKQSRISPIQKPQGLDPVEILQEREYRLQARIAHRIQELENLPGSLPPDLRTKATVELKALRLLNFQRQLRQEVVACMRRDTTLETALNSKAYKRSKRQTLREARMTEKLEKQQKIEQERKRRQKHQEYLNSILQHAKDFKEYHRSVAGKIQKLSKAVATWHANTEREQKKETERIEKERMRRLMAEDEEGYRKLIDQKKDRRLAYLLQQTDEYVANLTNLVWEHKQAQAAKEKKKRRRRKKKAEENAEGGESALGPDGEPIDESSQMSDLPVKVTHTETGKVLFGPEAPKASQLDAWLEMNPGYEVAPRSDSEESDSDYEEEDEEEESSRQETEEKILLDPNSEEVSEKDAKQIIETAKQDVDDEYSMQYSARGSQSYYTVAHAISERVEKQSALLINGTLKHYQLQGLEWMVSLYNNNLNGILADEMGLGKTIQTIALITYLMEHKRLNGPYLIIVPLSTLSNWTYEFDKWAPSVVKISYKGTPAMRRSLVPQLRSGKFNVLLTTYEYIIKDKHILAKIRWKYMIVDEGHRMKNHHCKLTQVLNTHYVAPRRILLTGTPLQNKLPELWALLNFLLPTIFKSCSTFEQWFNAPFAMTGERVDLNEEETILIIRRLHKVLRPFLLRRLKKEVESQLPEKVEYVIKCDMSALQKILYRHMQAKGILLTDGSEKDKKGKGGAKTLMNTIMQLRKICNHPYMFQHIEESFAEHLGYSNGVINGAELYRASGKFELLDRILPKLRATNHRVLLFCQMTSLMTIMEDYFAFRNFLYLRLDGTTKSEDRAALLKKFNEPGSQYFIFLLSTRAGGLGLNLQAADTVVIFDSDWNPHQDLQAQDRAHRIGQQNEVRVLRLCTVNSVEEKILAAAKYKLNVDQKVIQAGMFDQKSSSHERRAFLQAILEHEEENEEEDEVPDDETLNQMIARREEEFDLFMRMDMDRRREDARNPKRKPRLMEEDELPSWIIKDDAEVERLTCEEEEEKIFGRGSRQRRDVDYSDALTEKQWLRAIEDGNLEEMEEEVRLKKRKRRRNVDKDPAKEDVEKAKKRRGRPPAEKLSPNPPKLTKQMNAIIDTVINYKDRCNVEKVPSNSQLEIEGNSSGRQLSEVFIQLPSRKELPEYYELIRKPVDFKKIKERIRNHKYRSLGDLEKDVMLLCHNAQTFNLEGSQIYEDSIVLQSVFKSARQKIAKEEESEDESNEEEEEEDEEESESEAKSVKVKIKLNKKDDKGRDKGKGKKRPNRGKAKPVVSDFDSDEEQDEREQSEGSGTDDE
# T1 sequence (P51532 whole entry): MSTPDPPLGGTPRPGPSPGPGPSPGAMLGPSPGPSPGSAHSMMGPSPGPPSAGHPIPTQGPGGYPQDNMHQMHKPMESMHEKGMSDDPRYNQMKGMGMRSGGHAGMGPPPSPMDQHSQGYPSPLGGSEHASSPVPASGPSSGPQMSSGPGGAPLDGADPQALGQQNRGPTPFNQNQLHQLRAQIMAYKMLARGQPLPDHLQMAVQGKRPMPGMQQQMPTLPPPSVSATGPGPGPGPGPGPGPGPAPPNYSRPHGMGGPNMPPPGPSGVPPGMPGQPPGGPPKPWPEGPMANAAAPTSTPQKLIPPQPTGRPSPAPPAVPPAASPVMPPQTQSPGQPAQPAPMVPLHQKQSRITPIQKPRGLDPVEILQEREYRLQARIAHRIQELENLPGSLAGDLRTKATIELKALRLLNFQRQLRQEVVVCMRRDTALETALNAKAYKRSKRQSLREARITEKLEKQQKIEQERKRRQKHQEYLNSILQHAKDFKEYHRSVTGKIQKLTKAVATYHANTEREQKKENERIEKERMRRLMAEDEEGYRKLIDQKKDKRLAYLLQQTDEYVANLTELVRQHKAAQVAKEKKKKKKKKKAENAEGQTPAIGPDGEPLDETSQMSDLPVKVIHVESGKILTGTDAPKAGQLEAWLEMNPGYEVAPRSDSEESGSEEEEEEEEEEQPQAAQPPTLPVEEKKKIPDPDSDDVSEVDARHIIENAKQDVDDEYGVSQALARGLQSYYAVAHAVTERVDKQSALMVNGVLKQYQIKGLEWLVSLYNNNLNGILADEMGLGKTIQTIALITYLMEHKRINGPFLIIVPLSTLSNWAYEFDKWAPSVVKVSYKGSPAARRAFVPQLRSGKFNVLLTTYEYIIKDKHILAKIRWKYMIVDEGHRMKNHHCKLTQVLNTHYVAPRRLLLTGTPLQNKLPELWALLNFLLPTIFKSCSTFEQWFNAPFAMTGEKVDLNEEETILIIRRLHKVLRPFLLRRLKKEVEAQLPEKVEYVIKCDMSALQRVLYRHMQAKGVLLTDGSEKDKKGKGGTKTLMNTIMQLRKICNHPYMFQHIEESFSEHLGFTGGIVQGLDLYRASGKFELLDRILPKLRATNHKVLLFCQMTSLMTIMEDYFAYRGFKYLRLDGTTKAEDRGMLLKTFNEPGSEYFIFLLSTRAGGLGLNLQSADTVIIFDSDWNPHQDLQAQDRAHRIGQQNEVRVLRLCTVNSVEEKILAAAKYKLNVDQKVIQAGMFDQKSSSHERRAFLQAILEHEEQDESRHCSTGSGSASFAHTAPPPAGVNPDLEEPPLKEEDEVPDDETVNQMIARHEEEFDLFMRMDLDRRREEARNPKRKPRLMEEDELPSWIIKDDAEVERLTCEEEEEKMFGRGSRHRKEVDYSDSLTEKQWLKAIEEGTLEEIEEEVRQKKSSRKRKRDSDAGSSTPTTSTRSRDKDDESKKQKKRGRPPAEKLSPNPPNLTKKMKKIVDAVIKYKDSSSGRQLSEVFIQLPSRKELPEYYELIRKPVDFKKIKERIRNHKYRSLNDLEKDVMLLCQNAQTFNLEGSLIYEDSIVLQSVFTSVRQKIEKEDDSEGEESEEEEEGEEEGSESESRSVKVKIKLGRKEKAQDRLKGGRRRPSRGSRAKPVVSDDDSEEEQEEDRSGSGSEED
IC50 [1],IC50 [2],SMILES
> 10 nM,< 10 nM,CC(C)(C#N)n1ccc(C(=O)NCC(=O)Nc2nc(-c3cc(F)c4c(c3)OCC4)cs2)c1 [Compound 571]
> 10 nM,< 10 nM,CS(=O)(=O)n1ccc(C(=O)NCC(=O)Nc2nc(-c3cccc([C@H]4CC4(F)F)c3)cs2)c1 [Compound 576]
> 100 nM,> 100 nM,COC(=O)N1CCC[C@H](c2csc(NC(=O)CNC(=O)c3ccn(S(C)(=O)=O)c3)n2)C1 [Compound 579]
> 100 nM,> 100 nM,COC(=O)N1CCC[C@H](c2csc(NC(=O)CNC(=O)c3ccn(C(C)(C)C)c3)n2)C1 [Compound 581]
> 10 nM,> 10 nM,CS(=O)(=O)n1ccc(C(=O)NCC(=O)Nc2nc(-c3cccc(N4CC[C@@H](C(F)F)C4)c3)cs2)c1 [Compound 586]
> 100 nM,> 10 nM,C[C@H](NC(=O)c1ccn(C2(C#N)CC2)c1)C(=O)Nc1nc(-c2cccc(-c3ccn(C)n3)c2)cs1 [Compound 588]
> 10 nM,> 10 nM,CN1CCOc2ccc(-c3csc(NC(=O)CNC(=O)c4ccn(C(C)(C)C#N)c4)n3)cc21 [Compound 590]
> 10 nM,> 10 nM,C[C@H](NC(=O)c1ccn(S(C)(=O)=O)c1)C(=O)Nc1nc(-c2cccc(-c3ccn(C)n3)c2)cs1 [Compound 591]
> 10 nM,> 10 nM,COC[C@H](NC(=O)c1ccn(S(C)(=O)=O)c1)C(=O)Nc1nc(-c2cccc([C@@H]3CC3(F)F)c2)cs1 [Compound 598]
< 10 nM,< 10 nM,C[C@@H]1CN(c2cccc(-c3csc(NC(=O)[C@H](C)NC(=O)c4ccn(C5(C#N)COC5)c4)n3)n2)C[C@H](C)O1 [Compound 600]

# The next lines start with the molecule.
SMILES,IC50 [1],IC50 [2]
COCC[C@H](NC(=O)c1ccn(C(C)(C)C)c1)C(=O)Nc1nc(-c2ccc3ccn(C)c(=O)c3c2)cs1 [Compound 567],> 10 nM,> 10 nM
COC[C@H](NC(=O)c1ccn(C2(C#N)CC2)c1)C(=O)Nc1nc(-c2cccc(-c3ccn(C)n3)c2)cs1 [Compound 568],> 10 nM,> 10 nM
CN1CCc2c(F)cc(-c3csc(NC(=O)CNC(=O)c4ccn(S(C)(=O)=O)c4)n3)cc21 [Compound 569],< 10 nM,< 10 nM
COC[C@H](NC(=O)c1ccn(C2(C)COC2)c1)C(=O)Nc1nc(-c2cccc(-c3ccn(C)n3)c2)cs1 [Compound 572],> 10 nM,> 10 nM
COC[C@H](NC(=O)c1ccn(S(C)(=O)=O)c1)C(=O)Nc1nc(-c2cccc(N3CCC3)c2F)cs1 [Compound 573],> 10 nM,> 10 nM
CS(=O)(=O)n1ccc(C(=O)NCC(=O)Nc2nc(-c3ccc4c(c3)OCO4)cs2)c1 [Compound 574],> 10 nM,> 10 nM
CS(=O)(=O)n1ccc(C(=O)NCC(=O)Nc2nc(-c3cccc([C@@H]4CC4(F)F)c3)cs2)c1 [Compound 575],> 10 nM,> 10 nM
COC(=O)N1CCC[C@@H](c2csc(NC(=O)CNC(=O)c3ccn(S(C)(=O)=O)c3)n2)C1 [Compound 578],> 100 nM,> 10 nM
COC(=O)N1CCC[C@@H](c2csc(NC(=O)CNC(=O)c3ccn(C(C)(C)C)c3)n2)C1 [Compound 580],> 100 nM,> 100 nM
COC[C@H](NC(=O)c1ccn(C(C)(C)C)c1)C(=O)Nc1nc(-c2ccc3ccn(C(F)F)c(=O)c3c2)cs1 [Compound 583],> 10 nM,> 10 nM
COC[C@H](NC(=O)c1ccn(C(C)(C)C#N)c1)C(=O)Nc1nc(-c2ccc3ccn(C)c(=O)c3c2)cs1 [Compound 584],< 10 nM,< 10 nM
CS(=O)(=O)n1ccc(C(=O)NCC(=O)Nc2nc(-c3cccc(N4CC[C@H](C(F)F)C4)c3)cs2)c1 [Compound 585],> 10 nM,< 10 nM
C[C@H](NC(=O)c1ccn(C2(C)COC2)c1)C(=O)Nc1nc(-c2cccc(-c3ccn(C)n3)c2)cs1 [Compound 589],> 100 nM,> 10 nM
COC[C@H](NC(=O)c1ccn(S(C)(=O)=O)c1)C(=O)Nc1nc(-c2ccc(F)c(OC(F)(F)F)c2)cs1 [Compound 592],> 10 nM,> 10 nM
COC[C@H](NC(=O)c1ccn(S(C)(=O)=O)c1)C(=O)Nc1nc(-c2cc(F)cc(OC(F)(F)F)c2)cs1 [Compound 593],> 10 nM,> 10 nM
N#CC1(n2ccc(C(=O)NCC(=O)Nc3nc(-c4cccc(N5CCC5)n4)cs3)c2)COC1 [Compound 595],> 10 nM,> 10 nM
COC[C@H](NC(=O)c1ccn(S(C)(=O)=O)c1)C(=O)Nc1nc(-c2ccc3c(c2)OCO3)cs1 [Compound 596],> 10 nM,< 10 nM
COC[C@H](NC(=O)c1ccn(S(C)(=O)=O)c1)C(=O)Nc1nc(-c2cccc([C@H]3CC3(F)F)c2)cs1 [Compound 599],> 10 nM,> 10 nM
